Laboratory results reported in patent publication US20120225848A1, “Antagonists of GABA-B Receptors to Enhance Neuronal Function, Learning and Memory” (priority 2009, published 2012).

How the values were obtained:
[1] = system: mRNAs for NGF and BDNF; details: Heese et al., 2000; cited from earlier work
[2] = system: dentate gyrus (DG) of hippocampal slices; assay: LTP of evoked field potentials in dentate gyrus of hippocampal slices; assay type: cell-based, mouse
[3] = system: dentate gyrus (DG) of hippocampal slices; assay type: cell-based, mouse; details: 1 μM
[4] = system: dentate gyrus (DG) of hippocampal slices; assay: Paired-pulse depression of the population spike (feedback inhibition) in DG; assay type: cell-based, mouse; details: 1 μM, interstimulus interval 30 ms
Experimental: Recording of evoked field potentials. A slice was transferred into the recording submerged chamber and superfused with ACSF at a constant rate of 2.5 ml/min at 32° C. Recording electrodes were made of borosilicate glass capillaries (1B150F, World Precision Instruments, Sarasota, Fla.) and were filled with 2M NaCl (resistance 0.3-0.5 MΩ). Monopolar stimulating electrodes were maid of Pt/Ir wires with diameter 25.4 μm (PTT0110, World Precision Instruments, Sarasota, Fla.) and had 100-μm-long exposed tips. […]
The amplitude of the population spike was measured as follows: 1) a line was drawn at the base of the population spike connecting the first and second peaks of the field response; 2) a second line was drawn at the peak of the population spike (i.e. at the peak of the downward deflection); 3) at the peak of the spike, a line was drawn vertically between these two lines to give the amplitude of the population spike. The magnitude of the field excitatory postsynaptic potential (fEPSP) was measured as the initial slope of the linear part of the fEPSP (latencies 0.1-0.9 ms). […]
Effects of GABAB antagonists on pro-epileptic properties in Ts65Dn DG. […] We evaluated the effect of GABAB antagonists on feedback inhibition by measuring paired-pulse depression of the population spike amplitude (PS2/PS1). […]

[5] = target: GABAB receptor (Homo sapiens, UniProt Q9UBS5); details: 1 μM; baclofen 5-10 μM; cited from earlier work
[6] = target: T1, Kir3.2-containing potassium channels (Homo sapiens, UniProt P48051); details: Kobayashi et al., 2004; read-out: IC50 for block of Kir3.2 channels; cited from earlier work
T1 sequence (P48051 1-423): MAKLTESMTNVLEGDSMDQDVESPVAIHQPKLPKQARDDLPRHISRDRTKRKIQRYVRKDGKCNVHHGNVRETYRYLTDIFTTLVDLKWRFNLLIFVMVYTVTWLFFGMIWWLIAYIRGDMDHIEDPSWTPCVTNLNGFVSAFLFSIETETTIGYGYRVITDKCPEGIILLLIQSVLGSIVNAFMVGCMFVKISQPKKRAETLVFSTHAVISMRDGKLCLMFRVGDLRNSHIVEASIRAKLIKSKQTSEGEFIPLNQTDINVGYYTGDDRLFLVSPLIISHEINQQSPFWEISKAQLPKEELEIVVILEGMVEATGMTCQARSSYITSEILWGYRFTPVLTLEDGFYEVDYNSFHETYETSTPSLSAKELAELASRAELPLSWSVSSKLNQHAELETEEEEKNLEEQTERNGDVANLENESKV

[7] = system: dentate gyrus (DG) of hippocampal slices; assay: Spontaneous ictal bursts in high-potassium model of epilepsy in hippocampal slices; assay type: cell-based, mouse; details: 1 μM, extracellular potassium 7.5 mM
Text: To evaluate more directly the potential effects of GABAB antagonists on epileptic properties of DG neural circuits, we examined spontaneous ictal bursts in hippocampal slices provoked by an increase in extracellular potassium. […] These changes were greater in Ts65Dn than in 2N slices (p<0.05). […] While the mechanism of the effect is yet to be refined, reduced electrochemical potential for potassium ions and the enhancement of feedback inhibition may both play a role.

[8] = system: 2N and Ts65Dn mice; assay: Spontaneous locomotor activity in activity box; assay type: in vivo, mouse; details: 0.5 mg/kg i.p. daily, acute (1 week) and chronic (3 weeks)
Experimental: (§1) Behavioral testing. All mice were exposed to the same series of behavioral tests starting at 2-2.5 months of age. Each mouse was handled for 10 min, twice a day, during the 7 days that preceded testing and for 3 days in between tests. Tests for spontaneous locomotor activity and open field were performed before the drug, during the acute (1 week), and during the chronic (3 weeks) phases of the drug administration. Novel object recognition task with a 24 hours delay was performed during the chronic phase (3 weeks) of the drug administration. All behavioral testing took place during the light cycle between 7:00 a.m. and 7:00 p.m. and was performed at room temperature (22° C.). On the day of testing, the mice were left in their home cages in the experimental room for 2 hours for habituation. To minimize olfactory cues from the previous trial, each apparatus was thoroughly cleaned with 10% ethanol after each animal. CGP55845 (0.5 mg/kg) or equivalent volume of saline was injected intraperitoneally once a day during 3 weeks. Body weight was measured weekly. […]
Spontaneous locomotor activity. Spontaneous locomotor activity was monitored using square Plexiglas activity chambers (43.2×43.2×20 cm) and activity monitor software (Med Associates Activity Monitor, version 5.93.773). […] Distance moved, velocity, resting time, and times spent in pre-defined areas of the arena were recorded. […]

[9] = system: 2N and Ts65Dn mice; assay: Open field activity; assay type: in vivo, mouse; details: 0.5 mg/kg i.p. daily, acute (1 week) and chronic (3 weeks)
Experimental: as §1, with “On the day of testing, the mice were left in their home cages in the experimental room for 2 hours for habituation. To minimize olfactory cues from the previous trial, each apparatus was thoroughly cleaned with 10% ethanol after each animal. CGP55845 (0.5 mg/kg) or equivalent volume of saline was injected intraperitoneally once a day during 3 weeks.” left out
Open field activity. Open field activity was recorded with a video camera in the arena of white squared box (76×76×50 cm) and analyzed with an automated videotracking system EthoVision Pro 3.1 (Noldus Information Technology, Wageningen, The Netherlands). Mice were placed in the center of the open field arena under dim ambient light conditions and activity was monitored for 10 min in a single trial. […] Results were averaged for total distance traveled, number of entries and the time spent in the pre-determined areas (the center of the arena, the periphery, i.e. area extending 12 cm from the center, and the border, which included the four corners).

[10] = system: 2N and Ts65Dn mice; assay: Novel object recognition with 24 h delay; assay type: in vivo, mouse; details: 0.5 mg/kg i.p. daily, 3 weeks
Experimental: (§2) Behavioral testing. All mice were exposed to the same series of behavioral tests starting at 2-2.5 months of age. Each mouse was handled for 10 min, twice a day, during the 7 days that preceded testing and for 3 days in between tests. Tests for spontaneous locomotor activity and open field were performed before the drug, during the acute (1 week), and during the chronic (3 weeks) phases of the drug administration. Novel object recognition task with a 24 hours delay was performed during the chronic phase (3 weeks) of the drug administration. All behavioral testing took place during the light cycle between 7:00 a.m. and 7:00 p.m. and was performed at room temperature (22° C.). On the day of testing, the mice were left in their home cages in the experimental room for 2 hours for habituation. To minimize olfactory cues from the previous trial, each apparatus was thoroughly cleaned with 10% ethanol after each animal. CGP55845 (0.5 mg/kg) or equivalent volume of saline was injected intraperitoneally once a day during 3 weeks. Body weight was measured weekly. The body weight was lower in Ts65Dn than in 2N mice, and it was not affected by the treatment (Supplementary FIG. S6). All behavioral tests and procedures were performed by operators who were blind to the genotypes and drug treatment.
Novel object recognition. The Bevins and Besheer protocol (Bevins and Besheer, 2006) for two sample objects with one environment was used to study learning and memory with 24 hours delays in 2N and Ts65Dn mice. Before testing, mice were habituated in a black Plexiglas chamber (31×24×27 cm) during 10 min for 2 consecutive days under dim ambient light conditions. Activity of mice during the object recognition task was recorded with a video camera. Two objects (A and B) consistent with height and volume, but different in shape and appearance were used in this test. […] The amount of time spent exploring each object (nose sniffing and head orientation within <1.0 cm) was recorded and evaluated by an operator, who was blind to both the phenotype and the treatment. […]

[11] = Body weight during treatment; assay type: in vivo, mouse; details: 0.5 mg/kg i.p. once a day during 3 weeks; 2N and Ts65Dn mice
Experimental: as §2

[12] = target: postsynaptic GABAB receptors (Homo sapiens, UniProt Q9UBS5); details: Pozza et al., 1999; read-out: IC50 for postsynaptic receptors in hippocampal slices; cited from earlier work
[13] = target: presynaptic GABAB receptors; details: Pozza et al., 1999; read-out: IC50 for presynaptic receptors in hippocampal slices; cited from earlier work
[14] = system: Ts65Dn hippocampal LTP; details: in vitro system; Kleschevnikov 2004; cited from earlier work

Sequence of presynaptic GABAB receptors (Q9UBS5 20-961): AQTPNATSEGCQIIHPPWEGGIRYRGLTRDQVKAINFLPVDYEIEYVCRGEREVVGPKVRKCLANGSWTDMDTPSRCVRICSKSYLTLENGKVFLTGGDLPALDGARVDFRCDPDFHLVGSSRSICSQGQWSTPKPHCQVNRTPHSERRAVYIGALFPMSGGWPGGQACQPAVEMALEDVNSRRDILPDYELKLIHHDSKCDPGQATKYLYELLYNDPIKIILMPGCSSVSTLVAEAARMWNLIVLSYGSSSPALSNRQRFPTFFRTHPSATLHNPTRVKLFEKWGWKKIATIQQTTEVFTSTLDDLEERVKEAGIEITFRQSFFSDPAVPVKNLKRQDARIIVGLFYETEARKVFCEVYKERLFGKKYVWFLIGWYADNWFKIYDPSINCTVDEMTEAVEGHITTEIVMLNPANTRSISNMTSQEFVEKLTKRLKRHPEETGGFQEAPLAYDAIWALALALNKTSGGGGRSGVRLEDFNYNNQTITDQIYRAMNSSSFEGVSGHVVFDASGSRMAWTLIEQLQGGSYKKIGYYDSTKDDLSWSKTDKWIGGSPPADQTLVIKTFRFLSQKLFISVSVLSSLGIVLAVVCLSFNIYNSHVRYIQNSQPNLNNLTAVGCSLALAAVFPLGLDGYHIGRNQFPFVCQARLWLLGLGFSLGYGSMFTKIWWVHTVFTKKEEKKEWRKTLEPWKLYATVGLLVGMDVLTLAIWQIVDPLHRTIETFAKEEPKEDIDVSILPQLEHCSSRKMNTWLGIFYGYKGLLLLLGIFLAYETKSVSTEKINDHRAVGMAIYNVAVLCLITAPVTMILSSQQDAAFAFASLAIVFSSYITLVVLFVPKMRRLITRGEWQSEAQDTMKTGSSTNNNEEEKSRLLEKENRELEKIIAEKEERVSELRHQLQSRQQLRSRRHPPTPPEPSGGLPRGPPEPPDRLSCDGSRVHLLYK
Sequence of presynaptic GABAB receptors (O75899 42-941 partner): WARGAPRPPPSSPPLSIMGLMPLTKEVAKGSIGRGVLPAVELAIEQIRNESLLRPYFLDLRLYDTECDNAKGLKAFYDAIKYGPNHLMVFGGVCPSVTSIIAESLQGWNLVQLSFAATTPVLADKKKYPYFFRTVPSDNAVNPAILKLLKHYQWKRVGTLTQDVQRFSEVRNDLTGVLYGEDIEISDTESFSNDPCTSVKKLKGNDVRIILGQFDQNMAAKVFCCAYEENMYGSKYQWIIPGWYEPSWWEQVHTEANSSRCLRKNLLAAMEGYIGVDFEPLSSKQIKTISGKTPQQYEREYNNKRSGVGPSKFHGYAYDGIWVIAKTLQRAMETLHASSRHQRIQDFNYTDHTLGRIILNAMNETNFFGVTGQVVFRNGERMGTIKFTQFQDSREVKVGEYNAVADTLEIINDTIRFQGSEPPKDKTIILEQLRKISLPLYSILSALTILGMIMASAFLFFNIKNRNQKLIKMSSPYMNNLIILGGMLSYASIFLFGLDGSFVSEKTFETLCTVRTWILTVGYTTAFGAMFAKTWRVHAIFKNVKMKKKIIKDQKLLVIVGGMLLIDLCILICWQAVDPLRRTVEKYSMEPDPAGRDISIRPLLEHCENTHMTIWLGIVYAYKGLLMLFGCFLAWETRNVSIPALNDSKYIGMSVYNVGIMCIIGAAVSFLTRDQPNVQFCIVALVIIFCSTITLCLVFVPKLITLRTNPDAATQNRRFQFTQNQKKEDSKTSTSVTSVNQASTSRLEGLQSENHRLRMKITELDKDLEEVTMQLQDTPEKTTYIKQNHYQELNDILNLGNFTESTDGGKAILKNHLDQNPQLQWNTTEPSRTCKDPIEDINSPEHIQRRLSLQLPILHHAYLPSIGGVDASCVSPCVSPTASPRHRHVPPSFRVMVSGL
Sequence of GABAB receptor (Q9UBS5 20-961): as the sequence (Q9UBS5 20-961) above
Sequence of GABAB receptor (O75899 42-941 partner): as the sequence (O75899 42-941 partner) above
Sequence of postsynaptic GABAB receptors (Q9UBS5 20-961): as the sequence (Q9UBS5 20-961) above
Sequence of postsynaptic GABAB receptors (O75899 42-941 partner): as the sequence (O75899 42-941 partner) above

In the case of `CCCCP(=O)(O)CCCN` [CGP36742], the “levels of mRNAs for NGF and BDNF” value [1] is given as “increased”.

For `CCOC(OCC)P(=O)(O)CCCNCc1ccc(Cl)c(Cl)c1` [CGP52432], the “effect on LTP” value ([2]; 1.0 μM, Ts65Dn slices) was “enhanced LTP in the Ts65Dn DG”, the “NMDA receptor-mediated component of the tetanus-evoked field responses” value [3] was “enhanced the NMDA receptor-mediated responses” and the “NMDA receptor-mediated component of the tetanus-evoked responses” value [3] was “restored to 2N levels”. For the same compound, the tetanus-evoked field responses [3] was “significantly increased”, the PS2/PS1 ratio ([4]; 2N slices, baseline 1.09±0.18) was 0.93±0.25 and the PS2/PS1 ratio ([4]; Ts65Dn slices, baseline 0.71±0.16) was 0.59±0.17.

For `C[C@H](NC[C@H](O)CP(=O)(O)Cc1ccccc1)c1ccc(Cl)c(Cl)c1.Cl` [CGP 55845A], the “baclofen-induced postsynaptic hyperpolarization and depression of evoked IPSPs and EPSPs” value [5] is given as “blocks”.

In the case of `CNCCC(Oc1ccc(C(F)(F)F)cc1)c1ccccc1` (stereo not drawn) [fluoxetine], the “effect on LTP” value ([2]; 10 μM, Ts65Dn DG) is listed as “enhanced LTP in the Ts65Dn DG” and the IC50 [6] is listed as about 10000 nM.

With CGP55845 the “effect on LTP” value ([2]; 0.1 μM, Ts65Dn slices) was “enhanced LTP in Ts65Dn”, the “effect on LTP” value ([2]; 1.0 μM, 2N slices) was “enhanced LTP in both Ts65Dn and 2N slices” and the “effect on LTP” value ([2]; 1.0 μM, Ts65Dn slices) was “enhanced LTP in both Ts65Dn and 2N slices”. The “frequency of spontaneous ictal bursts” value ([7]; 2N and Ts65Dn DG, p=0.8) was “did not affect”, the “amplitude of burst-associated field potentials” value ([7]; change greater in Ts65Dn than 2N, p<0.01) was “significantly reduced” and the spontaneous locomotor activity [8] was “did not affect”. For the same compound, the “open field parameters (velocity, distance, time in regions)” value [9] was “no significant effect”, the “exploration habits (total time of exploration of objects)” value ([10]; 2N and Ts65Dn mice) was “no effect” and the “improvement of memory in novel object recognition” value ([10]; 2N mice) was “observed only in Ts65Dn mice”. The discrimination index ([10]; Ts65Dn mice vs Ts65Dn vehicle control, p<0.05) was “significantly higher”, the body weight [11] was “not affected” and the IC50 [12] was 110 nM. For the same compound, the IC50 [13] was 740 nM.

For picrotoxin, the “deficits in Ts65Dn hippocampal LTP” value [14] is listed as “reverse”.
